For test [1], the target named is T1, hPK-M2 (Homo sapiens, UniProt P14618). The test is described as follows: Luminescent pyruvate kinase-luciferase coupled assay (KinaseGlo). The format is biochemical. The settings on record: for activation at 57 µM: read-out: hPK, M2 Max. Res. How it is done: Luminescent Pyruvate Kinase-Luciferase Coupled Assay.
Production of a luminescent signal based on the generation of ATP by pyruvate kinase was determined by using the ATP-dependent enzyme firefly luciferase. Three μL of substrate mix (at r.t.) in assay buffer (50 mM imidazole pH 7.2, 50 mM KCl, 7 mM MgCl2, 0.01% tween 20, 0.05% BSA) was dispensed into Kalypsys white solid bottom 1,536 well microtiter plates using a bottle-valve solenoid-based dispenser (Kalypsys). The final concentrations of substrates in the assay were 0.1 mM ADP and 0.5 mM PEP. […] Microtiter plates were incubated at r.t. for 1 hour and 2 uL of luciferase detection mix (Kinase-Glo, Promega at 4° C. protected from light) was added and luminescence was read with a ViewLux (Perkin Elmer) using a 5 second exposure/plate. Data was normalized for AC50 values to control columns containing uninhibited enzyme (n), and AC100 inhibition (i) according the following equation: Activation (%)=[(c−n)/(n−i)]*100 where c=compound, n=DMSO neutral, i=no enzyme control. […] Monitoring of activation was accomplished using enzyme at 3× the final concentration.
For orientation: Kinase-Glo reads ATP consumption through a luciferase reaction.

The target of test [2] is T1, hPK-M2. The test is described as follows: Fluorescent pyruvate kinase-lactate dehydrogenase (LDH) coupled secondary assay. It is filed as biochemical. As to conditions: for Emax: read-out: maximum response, LDH assay. How it is done:
Fluorescent Pyruvate Kinase-Lactate Dehydrogenase Coupled Secondary Assay.
Plates were immediately placed in ViewLux (Perkin Elmer) and NADH fluorescence was determined at 30 second exposure intervals for between 3 and 6 minutes. Data were normalized to the uninhibited and EC100 activation using known activators such as fructose-1,6-bis-phosphate. […] Data was collected on the Perkin Elmer Viewlux.

Setting [3] is: KinaseGlo, % activation at 57 μM of compound.
The mark [4] stands for this setting: luminescent pyruvate kinase-luciferase coupled assay (KinaseGlo), tables, read-out: hPK, M2 AC50.

Values joined by “and” are separate entries in the source; they are usually repeats but may differ in a detail not shown here. Equal values may be shown once. Read-outs that look alike come from different tables or passages of the source.

We go through 32 molecules from patent publication US8937067B2, “Activators of human pyruvate kinase” (The United States of America, as represented by the …, priority 2008, dated 2015).

As usually defined, the AC50 is the concentration giving half of the maximal activity seen.

T1 sequence (P14618 whole entry): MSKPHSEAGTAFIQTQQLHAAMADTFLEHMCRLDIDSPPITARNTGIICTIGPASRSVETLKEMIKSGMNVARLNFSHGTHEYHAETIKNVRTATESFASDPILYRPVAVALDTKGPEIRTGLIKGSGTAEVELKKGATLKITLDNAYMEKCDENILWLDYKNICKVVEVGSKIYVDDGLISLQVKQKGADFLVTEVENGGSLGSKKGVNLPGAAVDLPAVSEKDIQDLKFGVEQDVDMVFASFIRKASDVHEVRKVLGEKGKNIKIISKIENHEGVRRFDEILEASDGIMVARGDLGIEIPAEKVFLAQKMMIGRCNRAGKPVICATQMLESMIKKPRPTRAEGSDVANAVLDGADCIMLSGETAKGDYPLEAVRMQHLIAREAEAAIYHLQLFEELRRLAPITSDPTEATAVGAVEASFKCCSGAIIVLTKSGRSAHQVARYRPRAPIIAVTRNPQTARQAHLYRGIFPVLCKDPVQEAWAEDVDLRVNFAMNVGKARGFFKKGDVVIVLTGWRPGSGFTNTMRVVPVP

As to `COc1ccc(S(=O)(=O)N2CCN(S(=O)(=O)c3ccc4c(c3)OCCO4)CC2)cc1` [Compound 1, 1-(2,3-dihydrobenzo[b][1,4]dioxin-6-ylsulfonyl)-4-(4-methoxyphenylsulfonyl)piperazine], the activation at 57 µM on hPK-M2 [1] (setting [3]) was found to be 92.2 ± 12%. For the same molecule, the AC50 on hPK-M2 [1] (luciferase-coupled assay, read-out: AC50) was found to be 0.063 ± 0.02 µM; at hPK-M2 [1] (setting [4]), 0.111 µM; on hPK-M2 [2] (read-out: AC50, LDH assay), 0.3 ± 0.1 µM. Besides, on hPK-M2 [1] (luciferase-coupled assay, relative to activation by FBP), the maximum response was 122.1% and 92.2%. Further, the Emax on hPK-M2 [2] was determined as 224%.
As to `O=S(=O)(c1cccc(F)c1)N1CCN(S(=O)(=O)c2ccc3c(c2)OCCO3)CC1` [Compound 7, 1-(2,3-dihydrobenzo[b][1,4]dioxin-6-ylsulfonyl)-4-(3-fluorophenylsulfonyl)piperazine], the activation at 57 µM at hPK-M2 [1] (setting [3]) came out at 107 ± 8.8%. Also, the Emax came to 96.3% on hPK-M2 [1] (luciferase-coupled assay, relative to activation by FBP, read-out: maximum response) and 259% at hPK-M2 [2]. For the same molecule, the concentration at half-maximal activity (AC50) on hPK-M2 [1] (setting [4]) was determined as 0.316 µM.
`COc1cc2c(s1)c1cnn(Cc3ccccc3F)c(=O)c1n2C` [Compound 71, 2-Methoxy-4-methyl-6-[(2-fluorophenyl)methyl]-4H-thieno[3,2-b]pyrrole[3,2-d]pyridazinone]: on hPK-M2 [1] (setting [4]), the AC50 stood at 0.086 ± 0.04 µM.
Turning to `CSc1cc2c(s1)c1cnn(Cc3ccccc3F)c(=O)c1n2C` [Compound 72, 2-Methylthio-4-methyl-6-[(2-fluorophenyl)methyl]-4H-thieno[3,2-b]pyrrole[3,2-d]pyridazinone], the activation at 57 µM at hPK-M2 [1] (setting [3]) is 96.3 ± 3.8%. At hPK-M2 [1] (setting [4]), the AC50 was determined as 0.024 ± 0.01 µM.
For the molecule `Cn1c2cc([N+](=O)[O-])sc2c2cnn(Cc3ccccc3F)c(=O)c21` [Compound 80, 2-Nitro-4-methyl-6-[(2-fluorophenyl)methyl]-4H-thieno[3,2-b]pyrrole[3,2-d]pyridazinone], at hPK-M2 [1] (setting [4]), the AC50 is 0.018 ± 0.01 µM.
As to `CC(=O)Nc1cc2c(s1)c1cnn(Cc3ccccc3F)c(=O)c1n2C` [Compound 81, 2-Acetylamido-4-methyl-6-[(2-fluorophenyl)methyl]-4H-thieno[3,2-b]pyrrole[3,2-d]-pyridazinone], on hPK-M2 [1] (setting [3]), the activation at 57 µM amounted to 58.6 ± 23.5%.
As for `Cn1c2cc(C#N)sc2c2cnn(Cc3ccccc3F)c(=O)c21` [Compound 82, 2-Cyano-4-methyl-6-[(2-fluorophenyl)methyl]-4H-thieno[3,2-b]pyrrole[3,2-d]pyridazinone], the activation at 57 µM on hPK-M2 [1] (setting [3]) is 84.1 ± 5.5%. On hPK-M2 [1] (setting [4]), the concentration at half-maximal activity (AC50) is 0.047 ± 0.02 µM.
In the same order, the values of `COC(=O)c1cc2c(s1)c1cnn(Cc3ccccc3F)c(=O)c1n2C` [Compound 83, Methyl 4-methyl-6-[(2-fluorophenyl)methyl]-4,1-thieno[3,2-b]pyrrole[3,2-d]pyridazinone-2-carboxylate] are 70.4 ± 12.9% and 0.084 ± 0.03 µM.
As to `Cn1c2cc(B(O)O)sc2c2cnn(Cc3ccccc3F)c(=O)c21` [Compound 86, 4-Methyl-6-[(2-fluorophenyl)methyl]-4,1-thieno[3,2-b]pyrrole[3,2-d]pyridazinone, 2-ylboronic acid], the activation at 57 µM at hPK-M2 [1] (setting [3]) turned out to be 101 ± 1.4%.
`CC(O)c1cc2c(s1)c1cnn(Cc3ccccc3F)c(=O)c1n2C` (stereo not shown) [Compound 88]: on hPK-M2 [1] (setting [3]), the “hPK, M2 Max. Res.” value amounted to 119.7 ± 2.6%. On hPK-M2 [1] (setting [4]), the AC50 amounted to 0.136 ± 0.01 µM.
Regarding `Cc1cc2[nH]c3c(=O)n(Cc4ccccc4F)ncc3c2s1` [Compound 89, 2-Methyl-6-[(2-fluorophenyl)methyl]-4H-thieno[3,2-b]pyrrole[3,2-d]pyridazinone], the activation at 57 µM on hPK-M2 [1] (setting [3]) is 32.9 ± 3.8%.
As for `CCn1c2cc(C)sc2c2cnn(Cc3ccccc3F)c(=O)c21` [Compound 90, 2-Methyl-4-ethyl-6-[(2-fluorophenyl)methyl]-4H-thieno[3,2-b]pyrrole[3,2-d]pyridazinone], the “hPK, M2 Max. Res.” value at hPK-M2 [1] (setting [3]) was found to be 95.6 ± 6.3%. The concentration at half-maximal activity (AC50) on hPK-M2 [1] (setting [4]) was determined as 5.9 ± 1.7 µM.
As to `CCCCCn1ncc2c3sc(C)cc3n(C)c2c1=O` [Compound 102, 2,4-Methyl-6-pentyl-4H-thieno[3,2-b]pyrrole[3,2-d]pyridazinone], the “PKM2 activation, result in words” value on hPK-M2 [1] is recorded as “marked loss of potency”.
As to `Cc1cc2c(s1)c1cnn(Cc3ccccc3)c(=O)c1n2C` [Compound 103, 2,4-Methyl-6-phenylmethyl-4H-thieno[3,2-b]pyrrole[3,2-d]pyridazinone], the AC50 on hPK-M2 [1] (setting [4]) turned out to be 0.062 ± 0.02 µM.
`Cc1cc2c(s1)c1cnn(Cc3cccc(F)c3)c(=O)c1n2C` [Compound 104]: at hPK-M2 [1] (setting [3]), the activation at 57 µM was 91.5 ± 8.4%. Besides, at hPK-M2 [1] (setting [4]), the AC50 came out at 0.225 ± 0.1 µM.
Taken in the same sequence, the figures for `Cc1cc2c(s1)c1cnn(Cc3ccc(F)cc3)c(=O)c1n2C` [Compound 105, 2,4-Methyl-6-[(4-fluorophenyl)methyl]-4H-thieno[3,2-b]pyrrole[3,2-d]pyridazinone] were 102 ± 8.9% and 0.057 ± 0.02 µM.
Take `Cc1cc2c(s1)c1cnn(Cc3ccccc3Cl)c(=O)c1n2C` [Compound 106, 2,4-Methyl-6-[(2-chlorophenyl)methyl]-4H-thieno[3,2-b]pyrrole[3,2-d]pyridazinone]: at hPK-M2 [1] (setting [3]), the activation at 57 µM was found to be 95.6 ± 10%. For the same molecule, the AC50 at hPK-M2 [1] (setting [4]) was found to be 0.298 ± 0.14 µM.
Consider `Cc1cc2c(s1)c1cnn(Cc3cccc(Cl)c3)c(=O)c1n2C` [Compound 107, 2,4-Methyl-6-[(3-chlorophenyl)methyl]-4H-thieno[3,2-b]pyrrole[3,2-d]pyridazinone], for which the activation at 57 µM on hPK-M2 [1] (setting [3]) amounted to 99.1 ± 3.1%. Besides, the AC50 on hPK-M2 [1] (setting [4]) was 0.126 ± 0.01 µM.
Taken in the same sequence, the figures for `Cc1ccc(Cn2ncc3c4sc(C)cc4n(C)c3c2=O)cc1` [Compound 109, 2,4-Methyl-6-[(4-methylphenyl)methyl]-4H-thieno[3,2-b]pyrrole[3,2-d]pyridazinone] were 84.1 ± 5.5% and 0.356 ± 0.12 µM.
Taken in the same sequence, the figures for `Cc1cc2c(s1)c1cnn(Cc3cccc(F)c3F)c(=O)c1n2C` [Compound 114, 2,4-Methyl-6-[(2,3-difluorophenyl)methyl]-4H-thieno[3,2-b]pyrrole[3,2-d]pyridazinone] were 72.8 ± 7.8% and 0.215 ± 0.06 µM.
Taken in the same sequence, the figures for `Cc1cc2c(s1)c1cnn(Cc3c(F)cccc3Cl)c(=O)c1n2C` [Compound 115, 2,4-Methyl-6-[(2-chloro-6-fluorophenyl)methyl]-4H-thieno[3,2-b]pyrrole[3,2-d]pyridazinone] were 92.9 ± 4.1% and 0.06 ± 0.02 µM.
For `Cc1cc2c(s1)c1cnn(Cc3ccc(F)c(F)c3F)c(=O)c1n2C` [Compound 116, 2,4-Methyl-6-[(2,3,4-trifluorophenyl)methyl]-4H-thieno[3,2-b]pyrrole[3,2-d]pyridazinone], on hPK-M2 [1] (setting [3]), the activation at 57 µM came out at 69.2 ± 14.6%. Besides, on hPK-M2 [1] (setting [4]), the AC50 is 0.174 ± 0.07 µM.
In the same order, the values of `Cc1cc2c(s1)c1cnn(Cc3c(F)c(F)cc(F)c3F)c(=O)c1n2C` [Compound 117, 2,4-Methyl-6-[(2,3,5,6-tetrafluorophenyl)methyl]-4H-thieno[3,2-b]pyrrole[3,2-d]pyridazinone] are 59.4 ± 6.3% and 0.345 ± 0.06 µM.
For `Cc1cc2c(s1)c1cnn(Cc3cccc(C)c3F)c(=O)c1n2C` [Compound 118, 2,4-Methyl-6-[(3-methyl-2-fluorophenyl)methyl]-4H-thieno[3,2-b]pyrrole[3,2-d]pyridazinone], the activation at 57 µM at hPK-M2 [1] (setting [3]) came out at 97.4 ± 6.9%. Further, on hPK-M2 [1] (setting [4]), the AC50 was 0.035 ± 0.01 µM.
As to `Cc1cc2c(s1)c1cnn(Cc3ccc(C)c(F)c3F)c(=O)c1n2C` [Compound 119, 2,4-Methyl-6-[(4-methyl-2,3-fluorophenyl)methyl]-4H-thieno[3,2-b]pyrrole[3,2-d]pyridazinone], the “hPK, M2 Max. Res.” value on hPK-M2 [1] (setting [3]) turned out to be 80.5 ± 5.8%. At hPK-M2 [1] (setting [4]), the half-maximal activity concentration (AC50) stood at 0.108 ± 0.03 µM.
In the same order, the values of `CCNc1cccc(S(=O)(=O)N2CCN(S(=O)(=O)c3ccc4c(c3)OCCO4)CC2)c1` [Compound 136] are 63.00% and 0.081 µM.
As for `CN(C)c1cccc(S(=O)(=O)N2CCN(S(=O)(=O)c3ccc4c(c3)OCCO4)CC2)c1` [Compound 138], the “hPK, M2 Max. Res.” value on hPK-M2 [1] (setting [3]) is 54.00%. In addition, at hPK-M2 [1] (setting [4]), the half-maximal activity concentration (AC50) was 0.092 µM.
Take `CNc1cccc(S(=O)(=O)N2CCN(S(=O)(=O)c3ccc4c(c3)OCCO4)CC2)c1` [Compound 142]: at hPK-M2 [1] (setting [3]), the “hPK, M2 Max. Res.” value is given as 67.00%. The AC50 on hPK-M2 [1] (setting [4]) stood at 0.29 µM.
In the same order, the values of `Nc1cc(S(=O)(=O)N2CCN(S(=O)(=O)c3ccc4c(c3)OCCO4)CC2)ccn1` [Compound 146] are 81.00% and 1.6 µM.
On to `COc1cccc(Cn2ncc3c4sc([S+](C)[O-])cc4n(C)c3c2=O)c1` (stereo not shown) [Compound 148], for which the activation at 57 µM at hPK-M2 [1] (setting [3]) is 89%. On hPK-M2 [1] (setting [4]), the concentration at half-maximal activity (AC50) was 0.092 µM.
Turning to `Cn1c2cc([S+](C)[O-])sc2c2cnn(Cc3cccc(N)c3)c(=O)c21` (stereo not shown) [Compound 149], the activation at 57 µM at hPK-M2 [1] was found to be 91%.
Turning to `O=C(COP(=O)(O)O)[C@@H](O)[C@H](O)[C@H](O)COP(=O)(O)O` [FBP, fructose-1,6-bis-phosphate, reference compound], the “% Activation by FBP” value at hPK-M2 [1] (average, 100% is approximately a 2-fold increase over basal signal) is recorded as 100%.
